The results in this text go back to patent US12624044B2, “SMARCA degraders and uses thereof” (Kymera Therapeutics, Inc., priority 2019, dated 2026).

For this test, the target named is SMARCA2 (Homo sapiens, UniProt P51531). Description: MSD SMARCA2 degradation in NCI-H1299 cell line (24 h). It is filed as cell-based. The arrangement: HC: NCI-H1299 cells treated with DMSO; host or cells: NCI-H1299. Conditions: for DC50: NCI-H1299 cells, read-out: SMARCA2 MSD H1299 degradation 24 h: External Abs-DC50. As to the method: Example 32. MSD SMARCA2 Degradation in […] Cell Line
Sequence of SMARCA2 (P51531 whole entry): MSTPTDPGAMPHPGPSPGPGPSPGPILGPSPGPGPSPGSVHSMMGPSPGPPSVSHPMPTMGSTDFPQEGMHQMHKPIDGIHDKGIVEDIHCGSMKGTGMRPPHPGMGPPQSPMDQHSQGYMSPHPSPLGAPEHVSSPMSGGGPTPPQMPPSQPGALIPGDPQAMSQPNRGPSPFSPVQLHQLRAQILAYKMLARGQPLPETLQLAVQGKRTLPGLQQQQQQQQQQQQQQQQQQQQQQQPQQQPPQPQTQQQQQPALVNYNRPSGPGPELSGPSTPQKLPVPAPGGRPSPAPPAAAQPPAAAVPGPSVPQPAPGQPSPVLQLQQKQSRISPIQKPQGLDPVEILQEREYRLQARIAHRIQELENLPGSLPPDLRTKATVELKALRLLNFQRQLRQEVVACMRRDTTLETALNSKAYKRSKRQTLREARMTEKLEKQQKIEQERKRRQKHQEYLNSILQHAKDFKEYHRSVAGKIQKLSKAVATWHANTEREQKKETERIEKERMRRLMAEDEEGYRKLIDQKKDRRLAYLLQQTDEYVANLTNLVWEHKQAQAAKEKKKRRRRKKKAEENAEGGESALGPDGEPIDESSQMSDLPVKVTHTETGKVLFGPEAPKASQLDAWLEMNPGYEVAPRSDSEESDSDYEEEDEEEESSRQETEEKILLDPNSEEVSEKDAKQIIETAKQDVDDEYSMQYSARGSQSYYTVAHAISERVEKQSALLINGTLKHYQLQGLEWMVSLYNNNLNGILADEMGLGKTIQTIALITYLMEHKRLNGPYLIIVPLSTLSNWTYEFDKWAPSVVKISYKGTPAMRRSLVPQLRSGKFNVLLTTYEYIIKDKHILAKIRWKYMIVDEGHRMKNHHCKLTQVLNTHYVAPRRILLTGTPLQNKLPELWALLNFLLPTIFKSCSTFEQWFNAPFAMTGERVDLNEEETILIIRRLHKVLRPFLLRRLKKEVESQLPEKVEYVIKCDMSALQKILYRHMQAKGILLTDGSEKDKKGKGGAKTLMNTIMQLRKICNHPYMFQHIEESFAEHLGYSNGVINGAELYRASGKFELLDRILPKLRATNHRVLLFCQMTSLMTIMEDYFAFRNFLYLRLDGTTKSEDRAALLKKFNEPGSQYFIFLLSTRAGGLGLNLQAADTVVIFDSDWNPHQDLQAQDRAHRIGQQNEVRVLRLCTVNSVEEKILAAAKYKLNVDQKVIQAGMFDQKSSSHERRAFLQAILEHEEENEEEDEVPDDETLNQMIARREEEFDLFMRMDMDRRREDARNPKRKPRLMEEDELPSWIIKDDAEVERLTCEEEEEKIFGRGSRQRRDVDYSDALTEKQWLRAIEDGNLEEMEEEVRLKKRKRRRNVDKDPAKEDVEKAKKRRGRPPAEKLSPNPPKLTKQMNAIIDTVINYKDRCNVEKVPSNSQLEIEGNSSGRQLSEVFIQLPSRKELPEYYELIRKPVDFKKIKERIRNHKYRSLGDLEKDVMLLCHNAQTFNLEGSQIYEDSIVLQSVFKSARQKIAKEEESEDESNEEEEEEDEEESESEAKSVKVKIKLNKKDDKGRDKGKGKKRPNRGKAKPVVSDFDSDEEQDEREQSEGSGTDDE
Cell Culture: Cells were cultured in exponential growth phase.
Compound Preparation and Treatment: NCI-H1299 cells were seeded into the 96-well plate at 4.0*10^4 cells per 100 ul per well. Incubate the plate in the incubator overnight. The next day, compounds were diluted to designed stock concentration by TECAN, then perform a 3 fold, 9-point dilution via transferring 15 uL compound into 30 μL DMSO using Apricot. 200 nL diluted compound from compound source plate were transferred into the 96-intermediate plate as designated by using Echo550, followed with 100 ul culture medium to make the 2× compound solution. Cell plate were changed with 80 ul of fresh culture medium and 80 ul of 2× compound solution was added into the well to achieve the final designed concentration. Cell plate was then shaken at 720 rpm for 5 min and incubated for 24 hours in the incubator.
Sample Preparation: Media was aspirated from the cultures and the plate was washed with PBS twice. 60 ul of pre-chilled PIPA lysis buffer (Boston BioProducts BP-115D) with protease inhibitor were directly added into the well to lyze the cells for 20 minutes at 4° C. Cell lysates were collected.
MSD Procedure: The MSD plate was coated with 40 ul cell lysate and incubated at 4° C. overnight. The next day, the MSD coated bare plate was washed 3 times with 150 ul 1×TBST per well, blocked with 150 ul of blocking buffer per well, and shaken for 1 hour at RT, 600 rpm. Blocking buffer was 3% Blocker A in TBST. MSD plate was then washed 3 times with 150 ul 1×TBST per well and Primary Detection antibody (Rabbit anti-SMARCA2/BRM antibody, 100 μg/ml, ab223735) was added to a final [conc.]: 0.3 ug/ml, 25 ul/well and shaken for 1 hour at RT, 600 rpm. Antibody was prepared in Antibody Detection buffer (1% Blocker A in 1×TBST). The MSD plate was then washed 3 times with 150 ul 1×TBST per well. Secondary Detection antibody (SULFO-TAG anti-species antibody) was then added to a final [conc.]: 1 ug/ml, 25 ul/well, and shaken for 1 hour at RT, 600 rpm. Antibodies were prepared in Antibody Detection buffer (1% Blocker A in 1×TBST). MSD plate was washed 3 times with 150 ul 1×TBST per well and 2×MSD reading buffer was added, 150 ul per well, and diluted from 4× with water. MSD instrument was then read.
Data Analysis: The percentage of relative level of SMARCA2 level was calculated following equation below.
LC: A2780, SMARCA2 negative cells. HC: NCI-H1299 cells treated with DMSO.
The letter codes for the percentage of SMARCA2 degradation after 24 hours (Dmax %) include: A (>90% degradation), B (>70-90 degradation), C (50-70 degradation), and D (<50% degradation).

What is called DC50 is the concentration at which degradation of the target reaches its halfway point. For orientation: Dmax means the greatest extent of degradation seen.

`O=C(CCCCCCCCOc1ccc(N2C[C@H]3C[C@@H]2CN3/C=C/C(=O)c2ccccc2O)nc1)NCCOCCOCCOCCNc1cccc2c1C(=O)N(C1CCC(=O)NC1=O)C2=O` (stereo partly shown) [I-1]: the DC50 was greater than 1 µM.

`O=C(CCCCCCCCOc1ccc(N2C[C@H]3C[C@@H]2CN3/C=C/C(=O)c2ccccc2O)nc1)NCCOCCOCCOCCOCCNc1cccc2c1C(=O)N(C1CCC(=O)NC1=O)C2=O` (stereo partly shown) [I-2]: the DC50 was greater than 1 µM.

As for `O=C(CCCCCCCCOc1ccc(N2C[C@H]3C[C@@H]2CN3/C=C/C(=O)c2ccccc2O)nc1)NCCOCCOCCOCCOCCOCCNc1cccc2c1C(=O)N(C1CCC(=O)NC1=O)C2=O` (stereo partly shown) [I-3], the DC50 was greater than 1 µM.

As to `Cn1c(=O)n(C2CCC(=O)NC2=O)c2ccc(CCCOCCOCCOCCNC(=O)CCCCCCCCOc3ccc(N4C[C@H]5C[C@@H]4CN5/C=C/C(=O)c4ccccc4O)nc3)cc21` (stereo partly shown) [I-4], the DC50 was greater than 1 µM.

Consider `Cn1c(=O)n(C2CCC(=O)NC2=O)c2ccc(CCCOCCOCCOCCOCCNC(=O)CCCCCCCCOc3ccc(N4C[C@H]5C[C@@H]4CN5/C=C/C(=O)c4ccccc4O)nc3)cc21` (stereo partly shown) [I-5], for which the DC50 was greater than 1 µM.

On to `Cn1c(=O)n(C2CCC(=O)NC2=O)c2ccc(CCCOCCOCCOCCOCCOCCNC(=O)CCCCCCCCOc3ccc(N4C[C@H]5C[C@@H]4CN5/C=C/C(=O)c4ccccc4O)nc3)cc21` (stereo partly shown) [I-6], for which the DC50 is greater than 1 µM.

For `O=C(CCCCCCCCOc1ccc(N2C[C@H]3C[C@@H]2CN3/C=C/C(=O)c2ccccc2O)nc1)NCCOCCOCCNc1cccc2c1C(=O)N(C1CCC(=O)NC1=O)C2=O` (stereo partly shown) [I-7], the DC50 was greater than 1 µM.

Consider `Cn1c(=O)n(C2CCC(=O)NC2=O)c2ccc(CCCOCCOCCNC(=O)CCCCCCCCOc3ccc(N4C[C@H]5C[C@@H]4CN5/C=C/C(=O)c4ccccc4O)nc3)cc21` (stereo partly shown) [I-8], for which the DC50 is greater than 1 µM.

Consider `CC(c1ccc(C(=O)NCCOCCOCCOCCNc2cccc3c2C(=O)N(C2CCC(=O)NC2=O)C3=O)cc1)n1cc(-c2cc(-c3ccccc3O)nnc2N)cn1` (stereo not shown) [I-9], for which the DC50 is greater than 1 µM.

With `CC(c1ccc(C(=O)NCCOCCOCCOCCOCCNc2cccc3c2C(=O)N(C2CCC(=O)NC2=O)C3=O)cc1)n1cc(-c2cc(-c3ccccc3O)nnc2N)cn1` (stereo not shown) [I-10], the DC50 is greater than 1 µM.

Turning to `CC(c1ccc(C(=O)NCCOCCOCCOCCOCCOCCNc2cccc3c2C(=O)N(C2CCC(=O)NC2=O)C3=O)cc1)n1cc(-c2cc(-c3ccccc3O)nnc2N)cn1` (stereo not shown) [I-11], the DC50 is greater than 1 µM.

Turning to `CC(c1ccc(C(=O)NCCOCCOCCOCCCc2ccc3c(c2)n(C)c(=O)n3C2CCC(=O)NC2=O)cc1)n1cc(-c2cc(-c3ccccc3O)nnc2N)cn1` (stereo not shown) [I-12], the DC50 was greater than 1 µM.

`CC(c1ccc(C(=O)NCCOCCOCCOCCOCCCc2ccc3c(c2)n(C)c(=O)n3C2CCC(=O)NC2=O)cc1)n1cc(-c2cc(-c3ccccc3O)nnc2N)cn1` (stereo not shown) [I-13]: the DC50 was greater than 1 µM.

Turning to `CC(c1ccc(C(=O)NCCOCCOCCOCCOCCOCCCc2ccc3c(c2)n(C)c(=O)n3C2CCC(=O)NC2=O)cc1)n1cc(-c2cc(-c3ccccc3O)nnc2N)cn1` (stereo not shown) [I-14], the DC50 was greater than 1 µM.

For `CC(c1ccc(C(=O)NCCOCCOCCNc2cccc3c2C(=O)N(C2CCC(=O)NC2=O)C3=O)cc1)n1cc(-c2cc(-c3ccccc3O)nnc2N)cn1` (stereo not shown) [I-15], the DC50 was greater than 1 µM.

In the case of `CC(c1ccc(C(=O)NCCOCCOCCCc2ccc3c(c2)n(C)c(=O)n3C2CCC(=O)NC2=O)cc1)n1cc(-c2cc(-c3ccccc3O)nnc2N)cn1` (stereo not shown) [I-16], the DC50 is greater than 1 µM.

Turning to `O=C(CCCCCCCCOc1ccnc(N2C[C@H]3C[C@@H]2CN3/C=C/C(=O)c2ccccc2O)c1)NCCOCCOCCOCCNc1cccc2c1C(=O)N(C1CCC(=O)NC1=O)C2=O` (stereo partly shown) [I-17], the DC50 was greater than 1 µM.

Turning to `O=C(CCCCCCCCOc1ccnc(N2C[C@H]3C[C@@H]2CN3/C=C/C(=O)c2ccccc2O)c1)NCCOCCOCCOCCOCCNc1cccc2c1C(=O)N(C1CCC(=O)NC1=O)C2=O` (stereo partly shown) [I-18], the DC50 is greater than 1 µM.

Turning to `O=C(CCCCCCCCOc1ccnc(N2C[C@H]3C[C@@H]2CN3/C=C/C(=O)c2ccccc2O)c1)NCCOCCOCCOCCOCCOCCNc1cccc2c1C(=O)N(C1CCC(=O)NC1=O)C2=O` (stereo partly shown) [I-19], the DC50 was greater than 1 µM.

On to `Cn1c(=O)n(C2CCC(=O)NC2=O)c2ccc(CCCOCCOCCOCCNC(=O)CCCCCCCCOc3ccnc(N4C[C@H]5C[C@@H]4CN5/C=C/C(=O)c4ccccc4O)c3)cc21` (stereo partly shown) [I-20], for which the DC50 was greater than 1 µM.

`Cn1c(=O)n(C2CCC(=O)NC2=O)c2ccc(CCCOCCOCCOCCOCCNC(=O)CCCCCCCCOc3ccnc(N4C[C@H]5C[C@@H]4CN5/C=C/C(=O)c4ccccc4O)c3)cc21` (stereo partly shown) [I-21]: the DC50 is greater than 1 µM.

Regarding `Cn1c(=O)n(C2CCC(=O)NC2=O)c2ccc(CCCOCCOCCOCCOCCOCCNC(=O)CCCCCCCCOc3ccnc(N4C[C@H]5C[C@@H]4CN5/C=C/C(=O)c4ccccc4O)c3)cc21` (stereo partly shown) [I-22], the DC50 is greater than 1 µM.

On to `O=C(CCCCCCCCOc1ccnc(N2C[C@H]3C[C@@H]2CN3/C=C/C(=O)c2ccccc2O)c1)NCCOCCOCCNc1cccc2c1C(=O)N(C1CCC(=O)NC1=O)C2=O` (stereo partly shown) [I-23], for which the half-maximal degradation concentration (DC50) was greater than 1 µM.

Regarding `Cn1c(=O)n(C2CCC(=O)NC2=O)c2ccc(CCCOCCOCCNC(=O)CCCCCCCCOc3ccnc(N4C[C@H]5C[C@@H]4CN5/C=C/C(=O)c4ccccc4O)c3)cc21` (stereo partly shown) [I-24], the DC50 was greater than 1 µM.

Consider `Cn1c(=O)n(C2CCC(=O)NC2=O)c2ccc(CCCOCCOCCNC(=O)CCCOc3cccc(N4C[C@H]5C[C@@H]4CN5/C=C/C(=O)c4ccccc4O)n3)cc21` (stereo partly shown) [I-25], for which the DC50 was greater than 1 µM.

Take `Cn1c(=O)n(C2CCC(=O)NC2=O)c2ccc(CCCOCCOCCOCCNC(=O)CCCOc3cccc(N4C[C@H]5C[C@@H]4CN5/C=C/C(=O)c4ccccc4O)n3)cc21` (stereo partly shown) [I-26]: the DC50 is greater than 1 µM.

In the case of `Cn1c(=O)n(C2CCC(=O)NC2=O)c2ccc(CNCc3cn(Cc4cccc(N5C[C@H]6C[C@@H]5CN6/C=C/C(=O)c5ccccc5O)n4)nn3)cc21` (stereo partly shown) [I-27], the DC50 was greater than 1 µM.

With `Cn1c(=O)n(C2CCC(=O)NC2=O)c2cccc(CCCNCc3cn(Cc4cccc(N5C[C@H]6C[C@@H]5CN6/C=C/C(=O)c5ccccc5O)n4)nn3)c21` (stereo partly shown) [I-28], the DC50 is greater than 1 µM. The Dmax (NCI-H1299, NCI-H1299 cells) was less than 50%.

As to `Cn1c(=O)n(C2CCC(=O)NC2=O)c2ccc(CCCNCc3cn(Cc4cccc(N5C[C@H]6C[C@@H]5CN6/C=C/C(=O)c5ccccc5O)n4)nn3)cc21` (stereo partly shown) [I-29], the DC50 is greater than 1 µM.

For `Cn1c(=O)n(C2CCC(=O)NC2=O)c2cccc(CCCOCCOc3cccc(N4C[C@H]5C[C@@H]4CN5/C=C/C(=O)c4ccccc4O)n3)c21` (stereo partly shown) [I-30], the DC50 was greater than 1 µM.

With `Cn1c(=O)n(C2CCC(=O)NC2=O)c2ccc(CCCOCCOc3cccc(N4C[C@H]5C[C@@H]4CN5/C=C/C(=O)c4ccccc4O)n3)cc21` (stereo partly drawn) [I-31, 3-[5-[3-[2-[[6-[(1R,4R)-5-[(E)-3-(2-hydroxyphenyl)-3-oxo-prop-1-enyl]-2,5-diazabicyclo[2.2.1]heptan-2-yl]-2-pyridyl]oxy]ethoxy]propyl]-3-methyl-2-oxo-benzimidazol-1-yl]piperidine-2,6-dione], the DC50 was greater than 1 µM.

Take `Cn1c(=O)n(C2CCC(=O)NC2=O)c2cccc(CCCOCCOCCOc3cccc(N4C[C@H]5C[C@@H]4CN5/C=C/C(=O)c4ccccc4O)n3)c21` (stereo partly shown) [I-32]: the DC50 is greater than 1 µM.

`Cn1c(=O)n(C2CCC(=O)NC2=O)c2ccc(CCCOCCOCCOc3cccc(N4C[C@H]5C[C@@H]4CN5/C=C/C(=O)c4ccccc4O)n3)cc21` (stereo partly shown) [I-33]: the DC50 is greater than 1 µM.

As to `O=C1CCC(N2C(=O)c3cccc(OCc4cn(Cc5cccc(N6C[C@H]7C[C@@H]6CN7/C=C/C(=O)c6ccccc6O)n5)nn4)c3C2=O)C(=O)N1` (stereo partly shown) [I-34], the DC50 was greater than 1 µM.

`O=C1CCC(N2C(=O)c3cccc(OCCc4cn(Cc5cccc(N6C[C@H]7C[C@@H]6CN7/C=C/C(=O)c6ccccc6O)n5)nn4)c3C2=O)C(=O)N1` (stereo partly shown) [I-35]: the DC50 was greater than 1 µM.

As for `O=C1CCC(N2C(=O)c3cccc(OCCCc4cn(Cc5cccc(N6C[C@H]7C[C@@H]6CN7/C=C/C(=O)c6ccccc6O)n5)nn4)c3C2=O)C(=O)N1` (stereo partly drawn) [I-36, 2-(2,6-dioxo-3-piperidyl)-4-[3-[1-[[6-[(1R,4R)-5-[(E)-3-(2-hydroxyphenyl)-3-oxo-prop-1-enyl]-2,5-diazabicyclo[2.2.1]heptan-2-yl]-2-pyridyl]methyl]triazol-4-yl]propoxy]isoindoline-1,3-dione], the DC50 is greater than 1 µM.
